Test [1] is described as follows: INR of individuals on coumadin therapy. The format is in vivo, human. As to the method:
Thrombin is illustrated for the group of 13 healthy individuals (♦/⋄, column 1), with the 6-month time period for subject 10 (⋄) illustrated. […] An historical record of whole blood data for individuals on coumadin therapy (●/∘) is seen in column 3. […] Individuals with hemophilia A; or induced hemophilia B; with (Δ) and without (▴) in vitro replacement were reevaluated for their 20 minute time point and are seen in column 4. Two individuals with factor XI deficiency (▪) at low tissue factor are shown in column 5. Thrombin generation from blood treated with anti platelet IIbIIIa therapeutics (*), ReoPro and Integrellin are represented in column 6.

Test [2] concerns whole blood. Put plainly: Tissue factor initiated whole blood assay, thrombin (TAT) at 20 minutes, historical record of treated individuals/blood. Set-up: species or system human.
Setting [3] is: one individual on coumadin therapy over a 6 month time period.

The values below come from US7235377B2, “Global test of the hemostatic system” (The University of Vermont and State Agriculture College, priority 2003, dated 2007).

For `CC(=O)CC(c1ccccc1)c1c(O)c2ccccc2oc1=O` (stereo not drawn) [Coumadin], the INR in test [1] (group of 7 individuals stably anticoagulated on coumadin, studied once) worked out at 2.3±0.5; in test [1] (one individual on coumadin therapy studied 10 times over 6 months), 2.1±0.4. In addition, the “TAT level, Mean” value in test [2] (mean per group, repeated measures on individuals averaged, 20 min) stood at 273.5. Further, in test [2] (setting [3]), the mean thrombin was 166.6 ± 121.3 nM. For the same molecule, the “variation of thrombin levels” value in test [2] (setting [3]) is reported as “approximately 325 nM”. Also, the “thrombin levels (range)” value in test [2] (one individual on coumadin therapy, stable INR, studied 10 times over 6 months, 20 min) was in the range of 9.3 to 334.7 nM.
